Source: ChEMBL document CHEMBL4359894, “Novel class of 7-Oxabicyclo[2.2.1]heptene sulfonamides with long alkyl chains displaying improved estrogen receptor α degradation activity” (Eur J Med Chem, 2019)
pIC50: −log10 of the molar value. The source made the active and inactive calls. The calls are words filed in the database; no cut-off is given here.

Experiments:
MCF-10A = assay: Cytotoxicity against human MCF10A cell incubated for 72 hrs by MTT assay; format: cell-based
[1] = molecular target: T1, Estrogen receptor (Homo sapiens) (UniProt P03372); assay: Binding affinity to ERalpha (unknown origin) by competitive fluorometric receptor binding assay relative to estradiol
T1 sequence (whole entry): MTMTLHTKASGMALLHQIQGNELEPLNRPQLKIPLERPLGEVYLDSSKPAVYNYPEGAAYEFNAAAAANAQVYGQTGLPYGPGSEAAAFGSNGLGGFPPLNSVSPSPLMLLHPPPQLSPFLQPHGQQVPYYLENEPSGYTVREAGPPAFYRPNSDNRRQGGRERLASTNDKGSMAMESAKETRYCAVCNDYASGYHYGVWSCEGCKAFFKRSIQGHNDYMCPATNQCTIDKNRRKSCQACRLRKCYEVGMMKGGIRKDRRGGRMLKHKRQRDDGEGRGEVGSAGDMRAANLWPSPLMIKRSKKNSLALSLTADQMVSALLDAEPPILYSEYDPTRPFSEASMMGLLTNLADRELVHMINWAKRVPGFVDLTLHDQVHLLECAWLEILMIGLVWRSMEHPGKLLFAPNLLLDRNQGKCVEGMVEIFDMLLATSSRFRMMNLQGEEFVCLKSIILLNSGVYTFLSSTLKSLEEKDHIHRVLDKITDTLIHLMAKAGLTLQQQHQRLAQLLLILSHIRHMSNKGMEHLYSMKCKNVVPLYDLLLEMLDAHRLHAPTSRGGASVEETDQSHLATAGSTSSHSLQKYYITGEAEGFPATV

[2] = molecular target: Estrogen receptor beta (Homo sapiens) (UniProt Q92731); assay: Binding affinity to ERbeta (unknown origin) by competitive fluorometric receptor binding assay relative to estradiol
[3] = Therapeutic index, ratio of IC50 for cytotoxicity against human MCF10A cells to IC50 for antiproliferative activity against human MCF7 cells; format: toxicity, cell-based; details: read-out: Ratio IC50
MCF7 = assay: Antiproliferative activity against human MCF7 cell incubated for 72 hrs by MTT assay; format: functional, cell-based; details: MCF7, 72 h
[4] = molecular target: T1, Estrogen receptor (Homo sapiens); assay: Induction of ERalpha degradation in human MCF7 cells assessed as decrease in ERalpha protein expression at 5 uM incubated for 24 hrs by Western blot analysis relative to control; format: cell-based; parameters: scale not given: the % may be the effect or the level left

Estrogen receptor beta (Homo sapiens), sequence (Q92731 whole entry): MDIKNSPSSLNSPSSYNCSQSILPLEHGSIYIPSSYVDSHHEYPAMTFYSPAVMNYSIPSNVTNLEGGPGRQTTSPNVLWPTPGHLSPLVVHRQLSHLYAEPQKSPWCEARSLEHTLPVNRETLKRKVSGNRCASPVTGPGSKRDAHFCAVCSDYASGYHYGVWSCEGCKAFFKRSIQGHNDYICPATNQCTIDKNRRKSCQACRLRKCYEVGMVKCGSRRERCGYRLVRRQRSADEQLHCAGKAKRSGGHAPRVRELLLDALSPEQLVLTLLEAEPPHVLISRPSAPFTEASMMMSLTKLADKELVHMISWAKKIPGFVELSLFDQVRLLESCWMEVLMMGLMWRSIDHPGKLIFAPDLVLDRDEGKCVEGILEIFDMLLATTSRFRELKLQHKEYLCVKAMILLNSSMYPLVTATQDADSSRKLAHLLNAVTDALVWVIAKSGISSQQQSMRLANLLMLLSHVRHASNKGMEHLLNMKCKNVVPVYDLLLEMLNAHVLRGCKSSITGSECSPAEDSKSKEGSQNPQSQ

SMILES	pIC50 (MCF-10A)	relative binding affinity (RBA) [1]	relative binding affinity (RBA) [2]	selectivity ratio [3]	pIC50 (MCF7)	Activity [4]
CCCCCCCCCCOc1ccc(C2=C(c3ccc(O)cc3)[C@H]3C[C@H](S(=O)(=O)N(CC(F)(F)F)c4ccc(Cl)cc4)[C@@H]2O3)cc1 (relative stereo)	< 4.00	0.25	0.11	> 1.9	4.29	
CCCCCCOc1ccc(C2=C(c3ccc(O)cc3)[C@H]3O[C@@H]2C[C@@H]3S(=O)(=O)N(CC(F)(F)F)c2ccc(OC)cc2)cc1	4.37	4.43	0.08	50.4	6.08	100%
CCCCCCCCCCCCOc1ccc(C2=C(c3ccc(O)cc3)[C@H]3C[C@H](S(=O)(=O)N(CC(F)(F)F)c4ccc(OC)cc4)[C@@H]2O3)cc1 (relative stereo)	< 4.00	0.06	0.15		< 4.00	
CCCCCCOc1ccc(N(C)S(=O)(=O)[C@H]2C[C@H]3O[C@@H]2C(c2ccc(O)cc2)=C3c2ccc(O)cc2)cc1 (relative stereo)	4.52	2.02	0.12	7.3	5.38	Active
CCCCCCCCCCCCOc1ccc(C2=C(c3ccc(O)cc3)[C@H]3O[C@@H]2C[C@@H]3S(=O)(=O)N(CC(F)(F)F)c2ccc(OC)cc2)cc1 (relative stereo)	< 4.00	0.32	0.01	> 1.1	4.06	
CCCCCCOc1ccc(N(CC)S(=O)(=O)[C@H]2C[C@H]3O[C@@H]2C(c2ccc(O)cc2)=C3c2ccc(O)cc2)cc1 (relative stereo)	4.44	2.29	0.14	24.6	5.83	Active
CCCCOc1ccc(C2=C(c3ccc(O)cc3)[C@H]3C[C@H](S(=O)(=O)N(CC(F)(F)F)c4ccc(Cl)cc4)[C@@H]2O3)cc1 (relative stereo)	4.34	4.25	0.05	15.5	5.53	
CCCCCCOc1ccc(C2=C(c3ccc(O)cc3)[C@H]3O[C@@H]2C[C@@H]3S(=O)(=O)N(CC)c2ccccc2)cc1 (relative stereo)	4.37	2.51	0.53	43.9	6.01	
CCCCCOc1ccc(C2=C(c3ccc(O)cc3)[C@H]3O[C@@H]2C[C@@H]3S(=O)(=O)N(CC(F)(F)F)c2ccc(OC)cc2)cc1 (relative stereo)	< 4.00	1.53	0.24	> 56.1	5.75	100%
CCCCCCCCOc1ccc(C2=C(c3ccc(O)cc3)[C@H]3C[C@H](S(=O)(=O)N(CC(F)(F)F)c4ccc(Cl)cc4)[C@@H]2O3)cc1 (relative stereo)	< 4.00	2.36	0.04	> 19.1	5.28	
CCCCCCCCOc1ccc(C2=C(c3ccc(O)cc3)[C@H]3O[C@@H]2C[C@@H]3S(=O)(=O)N(CC)c2ccccc2)cc1 (relative stereo)	4.46	1.03	0.05	29.8	5.94	
CCCCCCOc1ccc(C2=C(c3ccc(O)cc3)[C@H]3C[C@H](S(=O)(=O)N(CC(F)(F)F)c4ccc(Cl)cc4)[C@@H]2O3)cc1 (relative stereo)	4.24	4.14	0.04	19.8	5.54	
CCCCOc1ccc(C2=C(c3ccc(O)cc3)[C@H]3O[C@@H]2C[C@@H]3S(=O)(=O)N(CC)c2ccccc2)cc1 (relative stereo)	4.48	3.12	0.04	18	5.74	
CCCCCCOc1ccc(C2=C(c3ccc(O)cc3)[C@H]3C[C@H](S(=O)(=O)N(CC)c4ccccc4)[C@@H]2O3)cc1 (relative stereo)	< 4.00	2.99	0.35	> 28.9	5.46	
CCCCOc1ccc(C2=C(c3ccc(O)cc3)[C@H]3C[C@H](S(=O)(=O)N(CC(F)(F)F)c4ccc(OC)cc4)[C@@H]2O3)cc1 (relative stereo)	4.16	2.11	0.85	23.1	5.52	100%
CCCCOc1ccc(C2=C(c3ccc(O)cc3)[C@H]3O[C@@H]2C[C@@H]3S(=O)(=O)N(CC(F)(F)F)c2ccc(Cl)cc2)cc1 (relative stereo)	4.32	1.13	0.16	14.7	5.49	
CCCCCCCCOc1ccc(C2=C(c3ccc(O)cc3)[C@H]3C[C@H](S(=O)(=O)N(CC(F)(F)F)c4ccc(OC)cc4)[C@@H]2O3)cc1 (relative stereo)	< 4.00	1.08	0.32	> 45.2	5.66	
CCCCCCCCCCOc1ccc(C2=C(c3ccc(O)cc3)[C@H]3C[C@H](S(=O)(=O)N(CC(F)(F)F)c4ccc(OC)cc4)[C@@H]2O3)cc1 (relative stereo)	< 4.00	0.85	0.6	> 3.1	4.50	
CCCCCCCCCCOc1ccc(C2=C(c3ccc(O)cc3)[C@H]3O[C@@H]2C[C@@H]3S(=O)(=O)N(CC(F)(F)F)c2ccc(OC)cc2)cc1 (relative stereo)	< 4.00	1.35	0.02	> 3.9	4.60	
CCCCCCCCOc1ccc(C2=C(c3ccc(O)cc3)[C@H]3O[C@@H]2C[C@@H]3S(=O)(=O)N(CC(F)(F)F)c2ccc(OC)cc2)cc1 (relative stereo)	4.37	1.59	0.15	17.9	5.62	
CCCCCCCCOc1ccc(C2=C(c3ccc(O)cc3)[C@H]3C[C@H](S(=O)(=O)N(CC)c4ccccc4)[C@@H]2O3)cc1 (racemic)	4.23	0.55	0.02	10	5.23	
CCCCOc1ccc(C2=C(c3ccc(O)cc3)[C@H]3C[C@H](S(=O)(=O)N(CC)c4ccccc4)[C@@H]2O3)cc1 (relative stereo)	4.23	3.26	0.05	17.9	5.48	
CCCCCCOc1ccc(C2=C(c3ccc(O)cc3)[C@H]3O[C@@H]2C[C@@H]3S(=O)(=O)N(CC(F)(F)F)c2ccc(Cl)cc2)cc1 (relative stereo)	4.40	3.49	0.02	28.7	5.86	
CCCCOc1ccc(C2=C(c3ccc(O)cc3)[C@H]3O[C@@H]2C[C@@H]3S(=O)(=O)N(CC(F)(F)F)c2ccc(OC)cc2)cc1 (relative stereo)	4.11	1.81	0.27	32.2	5.61	100%
CCCCCCOc1ccc(C2=C(c3ccc(O)cc3)[C@H]3C[C@H](S(=O)(=O)N(CC(F)(F)F)c4ccc(OC)cc4)[C@@H]2O3)cc1 (relative stereo)	4.41	8.37	0.01	33.9	5.94	100%
CCCCCCCCOc1ccc(C2=C(c3ccc(O)cc3)[C@H]3O[C@@H]2C[C@@H]3S(=O)(=O)N(CC(F)(F)F)c2ccc(Cl)cc2)cc1	4.07	0.59	0.03	30.9	5.57	
CCCCCCCCCCOc1ccc(C2=C(c3ccc(O)cc3)[C@H]3O[C@@H]2C[C@@H]3S(=O)(=O)N(CC(F)(F)F)c2ccc(Cl)cc2)cc1 (relative stereo)	< 4.00	0.57	0.01	> 4.7	4.67	
